{
  "source": "patent US20100204258A1",
  "about": "“METHODS AND COMPOSITIONS FOR MODULATING INSULIN SECRETION AND GLUCOSE METABOLISM” (The Trustees of Columbia University in the City of New York, priority 2007, published 2010)",
  "key": {"[1]": {"tested_on": "dopamine content of brain and pancreas tissue", "assay": "Dopamine content of brain and pancreas extracts by ELISA after i.v. TBZ", "type": "in vivo, rat", "protocol": "Dopamine measurements. Anaesthetized rats received an intravenous injection of TBZ and were sacrificed one hour later. Euthanasia was performed by exsanguination of the anesthetized animal. Brain and pancreas were harvested as quickly as possible and frozen at −80° C. until use. Frozen tissue was pulverized in a liquid nitrogen cooled mortar and extracted in 0.01 N HCl. The tissue extract was centrifuged at 10,000×g at 4° C. to remove debris and the total protein was estimated by reading the absorbance at 280 nm. The concentration of dopamine in the extract was estimated using an ELISA kit from Rocky Mountain Diagnostics (Colorado Springs, Colo.) per the manufacturer's instructions and normalized to the extract protein concentration."}, "[2]": {"tested_on": "plasma insulin and glucagon", "assay": "Plasma insulin and glucagon (ELISA) during IPGTT", "type": "in vivo, rat", "protocol": "(§1) Blood glucose, insulin, glucagon and intraperitoneal glucose tolerance tests measurements. Blood samples were collected from a superficial blood vessel in the tails of the rats following 6 hours of fasting between 12:00 noon and 2:00 p.m. The fasting blood glucose (BG) levels of the rats were measured using an Accu-Check blood glucose monitoring system (Roche Diagnostics, Sommerville, N.J.). Intraperitoneal glucose tolerance tests (IPGTT) were performed in 6 hour fasting un-anaesthetized animals. Briefly, after baseline BG measurements, animals received an intraperitoneal (i.p.) injection of 1 gram glucose/kilogram body weight. To minimize stress during the procedure, rats were handled by the same operator during acclimatization and later during weighing and IPGTT. Blood samples (approximately 30 μl) were collected at baseline and then again 15, 30, 60, 90, and 120 minutes following i.p. glucose administration. BG concentrations were measured immediately on these samples and the remainder processed.\nPlasma was immediately separated by centrifugation at 3000×g for 15 minutes and then stored at −20° C. until analysis. Insulin and glucagon concentration measurements in rat plasma were performed by ELISA as per the manufacturer's instructions using kits from Linco Research Inc. (St. Charles, Mo.) and Alpco Diagnostics (Salem, N.H.), respectively. To validate the test, saline injections were performed by the same method. […] The area under the IPGTT glucose concentration×time curve (AUCIPGTT) was calculated by the trapezoidal rule. The area under the insulin or glucagon concentration×time curve (AUC INS or AUC GCG) was calculated in a similar manner."}, "human islets": {"tested_on": "human islets", "assay": "Glucose-stimulated insulin secretion of purified human cadaveric islets ex vivo", "type": "cell-based", "settings": "absence of high glucose stimulation; data not shown", "protocol": "Human islet tissue and glucose-stimulated insulin secretion. The islet tissue used in these studies was obtained with institutional review board approval. Pancreas digestion and islet isolation were performed using minor modifications of the Edmonton purification protocol. (Shapiro, […] al. “Islet […] in seven patients with type I diabetes mellitus using a glucocortoid-free immunosuppressive regimen.” New England Journal of Medicine 343(4):230-8, (2000)) The determination of islet cell mass, viability, and purity were also performed. Purified islets were cultured in CMRL 1066 culture media with 10% fetal bovine serum at 37° C. in humidified air (5% CO2) for 18 to 24 hours. The human islet insulin secretory response was performed according to a procedure described by the Edmonton group. (Id.) Briefly, after an overnight culture, islets were incubated with either low or high concentrations of glucose for 2 hours at 37° C. and 5% CO2. The supernatant was collected for insulin measurement. Insulin concentrations in these experiments were analyzed with a human insulin enzyme-linked immunosorbent assay (ELISA) kit (ALPCO Insulin ELISA kit, Windham, N.H.). In some experiments TBZ, DTBZ or epinephrine was added to the cultures before glucose stimulation."}, "Lewis rats [3]": {"tested_on": "Lewis rats", "assay": "IPGTT after 2 mg/kg i.v. of VMAT2 ligands (FIG. 10)", "type": "in vivo, rat", "settings": "2 mg/kg body weight i.v.; for blood glucose excursion during IPGTT: vs vehicle (DMSO)", "protocol": "Experimental animals. All animal studies were conducted as described in Example 1.\nAnaesthetized rats were administered TBZ, THB, butamol, reserpine, emetine, or Compound 6 at a dose of approximately 2-3 mg/kg body weight by intravenous (i.v.) injection using the penile vein. TBZ, THB, butamol, reserpine, emetine, and Compound 6 were each separately dissolved in neat sterile dimethylsulfoxide (DMSO) and diluted (always more than 10 fold) in sterile saline. Rats received injections of vehicle alone (10% DMSO in saline) or reserpine (in saline). Animals recovered fully before receiving IPGTT.\nas §1, with “30, 45,” for “30,”, “glucose.” for “glucose administration.”"}, "Lewis rats [4]": {"tested_on": "Lewis rats", "assay": "IPGTT with TBZ, emetine and Compound 6 (FIG. 12)", "type": "in vivo, rat", "settings": "single dose 2-3 mg/kg body weight", "protocol": "Experimental animals. All animal studies were conducted as described in Example 1. […] Rats received injections of vehicle alone (10% DMSO in saline) or reserpine (in saline). Animals recovered fully before receiving IPGTT. Blood glucose, insulin, glucagon and intraperitoneal glucose tolerance tests measurements. […] The fasting blood glucose (BG) levels of the rats were measured using an Accu-Check blood glucose monitoring system (Roche Diagnostics, Sommerville, N.J.). Intraperitoneal glucose tolerance tests (IPGTT) were performed in 6 hour fasting un-anaesthetized animals. Briefly, after baseline BG measurements, animals received an intraperitoneal (i.p.) injection of 1 gram glucose/kilogram body weight. To minimize stress during the procedure, rats were handled by the same operator during acclimatization and later during weighing and IPGTT. Blood samples (approximately 30 μl) were collected at baseline and then again 15, 30, 45, 60, 90, and 120 minutes following i.p. glucose. BG concentrations were measured immediately on these samples and the remainder processed."}, "[5]": {"settings": "1.6 μg/gm body weight i.v., one hour later (FIG. 3)"}, "[6]": {"settings": "one hour after injection of 10 μg/gm body weight"}},
  "note": "Entries after “also recorded” stand apart in the source; their conditions may differ.",
  "data": [
    {"smiles": "COc1cc2c(cc1OC)C1CC(=O)C(CC(C)C)CN1CC2", "note": "(stereo not shown) [TBZ, tetrabenazine]", "values": [
      {"measurement": "dopamine content of brain tissue", "setting": "[1]; [5]", "value": "reduces the dopamine content"},
      {"measurement": "dopamine content of pancreas tissue", "setting": "[1]; [5]", "value": "reduces the dopamine content"},
      {"measurement": "dopamine content of brain", "setting": "[1]; [6]", "value": "significantly depleted"},
      {"measurement": "dopamine content of pancreas", "setting": "[1]; [6]", "value": "significantly depleted"},
      {"measurement": "plasma insulin levels during IPGTT", "setting": "[2]; TBZ 1.6 μg/gm and glucose challenge, vs vehicle treated controls", "value": "alters; also recorded: greater"},
      {"measurement": "AUC INS with treatment relative to AUC INS of control animals", "setting": "[2]; four out of five experiments", "value": "greater than two fold"},
      {"measurement": "plasma glucagon levels during IPGTT", "setting": "[2]; i.v. TBZ 1.6 μg/gm and glucose challenge, relative to controls", "value": "alters; also recorded: generally lower"},
      {"measurement": "baseline plasma concentrations of glucagon", "setting": "[2]; prior to glucose challenge, not statistically significant", "value": "sometimes lower than controls"},
      {"measurement": "AUC GCG, less than that of control animals", "setting": "[2]; three of five experiments", "value": "75%-85%"},
      {"measurement": "insulin secretion of human islets", "setting": "human islets", "value": "not observed"},
      {"measurement": "blood glucose levels during IPGTT", "setting": "Lewis rats [3]; around sixty minutes following glucose challenge", "value": "returned to control or near normal levels"},
      {"measurement": "area under the curve in the IPGTT", "setting": "Lewis rats [3]; following glucose challenge", "value": "smaller area under the curve"},
      {"measurement": "blood glucose excursion during IPGTT", "setting": "Lewis rats [3]", "value": "reduce the blood glucose excursion"},
      {"measurement": "blood glucose excursion during IPGTT", "setting": "Lewis rats [3]; listed as Tetrabenazine", "value": "reduced the blood glucose excursion"},
      {"measurement": "blood glucose excursion during IPGTT", "setting": "Lewis rats [4]", "value": "consistently reduced the blood glucose excursion"},
      {"measurement": "area under the curve from IPGTT", "setting": "Lewis rats [4]; separate experiments", "value": "depress the area under the curve; also recorded: consistently suppressed the area under the curve"}
    ]}
  ]
}
